Assay results: patent US4046878A, “Daunomycin analogues, their preparation and use” (Societa' Farmaceutici Italia S.p.A., priority 1974, dated 1977)
Converted amounts (≈) assume the structure as drawn. Read-outs that look alike come from different tables or passages of the source.

Legend:
[1] = tested on: HeLa cells; test: Viability (colony formation) of HeLa cells in vitro; assay type: cell-based; settings: for IC50: Homo sapiens, HeLa, colony numbers 6 days later
Description: In vitro studies were carried out on HeLa cells, maintained in Eagle medium supplemented with 10% calf serum. The cells were treated with daunomycin, adriamycin* and the Test Compound for different periods of times. The cell viability was assessed by […] of 200-300 cells/plate. Colony numbers were evaluated 6 days later.

[2] = tested on: Moloney Sarcoma Virus (MSV); test: Formation of foci by Moloney Sarcoma Virus in infected mouse embryo fibroblast cultures (antiviral activity); assay type: cell-based
Excerpt: In vitro test on the formation of foci by Moloney Sarcoma Virus (MSV).

[3] = tested on: ascites sarcoma 180 cells; test: Ascitic tumors: survival of mice inoculated intraperitoneally with ascites sarcoma 180 cells; assay type: in vivo, mice (Swiss CD 1); settings: i.p.
Description: Tests were carried out on groups of 10 mice (Swiss CD 1) inoculated intraperitoneally with 1 × 10^6 ascites sarcoma 180 cells/animal. The animals were treated intraperitoneally with different concentrations of the Test Compound and adriamycin once a day following tumor implantation.
(§1) *% T/C = (mean survival time of treated mice/mean survival time of contro
**The figures in parentheses indicate the number of longterm survivors,
animals, one animal remained alive at the end of 60 days. (*) % T/C =

[4] = tested on: solid tumors; test: Solid tumors: tumor weight in mice grafted subcutaneously with fragments of neoplastic tissue; settings: for Toxicity / % T/C (mean tumor weight) / Tumor Weight: five days; for Tumor Weight: control 3.036, in g (unit assumed); for therapeutic index (T.I.): Maximum Tolerated dose (LD 10)/Minimum effective dose (T/C 0.10)
Description: In vivo tests on the activity of the Test Compound as compared with adriamycin on solid tumors were carried out on groups of ten Swiss CD 1 mice subcutaneously grafted with fragments of neoplastic tissue and treated intravenously with the respective antibiotics for five days starting form the day following the tumor implantation.
On the tenth day, all the test animals were sacrificed and their tumors removed and weighed.
*The therapeutic index (T.I) is expressed as the ratio between the maximu
tolerated dose (LD10) and the minimum effective dose, according to
Skipper and Schmidt, Cancer Chemother, Rep. 17 : 1-128, 1962. The minimum
effective dose indicates the dose which reduces by 90% the weight of
tumors compared to controls : such 90% reduction correponds to a T/C valu
**% T/C = (mean tumor weight of treated mice/mean tumor weight of control

[5] = tested on: L 1210 leukemia cells; test: Leukemia: survival of mice inoculated intraperitoneally with L 1210 leukemia cells; assay type: in vivo, BDF 1 mice; settings: for Toxicity / % T/C (mean survival time) / Average Survival Time: once; for % T/C (mean survival time) / Average Survival Time: day after implantation; for Average Survival Time: control 8
Description: The activity of the Test Compound was tested on BDF 1 mice inoculated intraperitoneally with 1×10^5 L 1210 leukemia cells/animal.
The animals were treated once, the day after tumor implantation.
as §1

[6] = tested on: mouse embryo fibroblast cultures; test: Cell proliferation in uninfected mouse embryo fibroblast cultures (cytotoxic activity); settings: 3 days
[7] = read-out: ID 50, 2 hrs. treatment
[8] = read-out: ID 50, 8 hrs. treatment
[9] = Fibroblast, 72 h, read-out: % Foci (control = 100)

COc1cccc2c1C(=O)c1c(O)c3c(c(O)c1C2=O)C[C@@](O)(C(C)=O)C[C@@H]3O[C@H]1C[C@H](N)[C@H](O)[C@H](C)O1 [Daunomycin]
IC50 [1, 7]: 0.095 µg/mL (≈ 0.18 µM)
IC50 [1, 8]: 0.023 µg/mL (≈ 0.0436 µM)

CC(=O)C1(O)Cc2c(O)c3c(c(O)c2C(O[C@H]2C[C@H](N)[C@H](O)[C@H](C)O2)C1)C(=O)c1ccccc1C3=O (mixture of isomers) [Test Compound, mixture of the α-anomers of (-)daunosaminyl(-)4-demethoxydaunomycinone and (-(daunosaminyl(+)4-demethoxydaunomycinone]
activity on HeLa cell viability, in words ([1]; 2 hours of treatment): as active as adriamycin
inhibition of cell viability, in words ([1]; 8 hours of treatment): higher than the inhibition by either adriamycin or daunomycin
IC50 ([1]; 2 hrs. treatment, read-out: ID 50 (the source's name)): 0.2 µg/mL
IC50 ([1]; 8 hrs. treatment, read-out: ID 50 (the source's name)): 0.002 µg/mL
antiviral activity (MSV foci formation), in words ([2]; 3 days): lesser antiviral activity than adriamycin
activity at 0.006 µg/mL ([2]; Fibroblast, 72 h, 0.006 γ/ml, 3 days, read-out: % Foci (control = 100)): 54%
activity at 0.025 µg/mL ([2]; Fibroblast, 72 h, 0.0250 γ/ml, 3 days, read-out: % Foci (control = 100)): 12%
activity at 0.1 µg/mL ([2]; Fibroblast, 72 h, 0.1 γ/ml, 3 days, read-out: % Foci (control = 100)): 0%
activity at 0.6 µg/mL ([2]; Fibroblast, 72 h, 0.6 γ/ml, 3 days, read-out: % Foci (control = 100)): 0%
% T/C, average survival time ([3]; Experiment 1, 1 mg/kg day): 185%
number of longterm survivors, i.e., after 60 days ([3]; Experiment 1, 1 mg/kg day): 0/10
% T/C, average survival time ([3]; Experiment 1, 2 mg/kg day): 61%
number of longterm survivors, i.e., after 60 days ([3]; Experiment 1, 2 mg/kg day): 1/10
% T/C, average survival time ([3]; Experiment 1, 5 mg/kg day): 38%
number of longterm survivors, i.e., after 60 days ([3]; Experiment 1, 5 mg/kg day): 0/10
% T/C, average survival time ([3]; Experiment 2, 0.2 mg/kg day): 146%
number of longterm survivors, i.e., after 60 days ([3]; Experiment 2, 0.2 mg/kg day): 0/10
% T/C, average survival time ([3]; Experiment 2, 1 mg/kg day): 107%
number of longterm survivors, i.e., after 60 days ([3]; Experiment 2, 1 mg/kg day): 0/10
% T/C, average survival time ([3]; Experiment 2, 1.5 mg/kg day): 79%
number of longterm survivors, i.e., after 60 days ([3]; Experiment 2, 1.5 mg/kg day): 0/10
% T/C, average survival time ([3]; Experiment 3, 0.12 mg/kg day): 115%
number of longterm survivors, i.e., after 60 days ([3]; Experiment 3, 0.12 mg/kg day): 0/10
% T/C, average survival time ([3]; Experiment 3, 0.25 mg/kg day): 188%
number of longterm survivors, i.e., after 60 days ([3]; Experiment 3, 0.25 mg/kg day): 1/10
% T/C, average survival time ([3]; Experiment 3, 0.5 mg/kg day): 181%
number of longterm survivors, i.e., after 60 days ([3]; Experiment 3, 0.5 mg/kg day): 0/10
% T/C, average survival time ([3]; Experiment 3, 1 mg/kg day): 223%
number of longterm survivors, i.e., after 60 days ([3]; Experiment 3, 1 mg/kg day): 1/10
active dose relative to adriamycin, in words ([3]; once a day): active at lower doses than adriamycin
effect on ascitic tumor growth, in words ([3]; once a day): remarkable effect on ascitic tumor growth
Toxicity ([4]; 0.5 mg/kg i.v.): 0/10
% T/C (mean tumor weight) ([4]; 0.5 mg/kg i.v., tenth day): 76%
Tumor Weight ([4]; 0.5 mg/kg i.v., tenth day): 2.295
Toxicity ([4]; 1 mg/kg i.v.): 0/10
% T/C (mean tumor weight) ([4]; 1 mg/kg i.v., tenth day): 51%
Tumor Weight ([4]; 1 mg/kg i.v., tenth day): 1.550
inhibition of the tumor growth ([4]; 1 mg/kg i.v., higher non toxic dose tested, tenth day): 50%
Toxicity ([4]; 2 mg/kg i.v.): 3/10
% T/C (mean tumor weight) ([4]; 2 mg/kg i.v., tenth day): 16%
Tumor Weight ([4]; 2 mg/kg i.v., tenth day): 0.485
therapeutic index (T.I.) [4]: 3.7
Toxicity ([5]; 0.75 mg/kg): 0/10
% T/C (mean survival time) ([5]; 0.75 mg/kg): 156%
Average Survival Time ([5]; 0.75 mg/kg): 12.5
Toxicity ([5]; 1.5 mg/kg): 1/10
% T/C (mean survival time) ([5]; 1.5 mg/kg): 162%
Average Survival Time ([5]; 1.5 mg/kg): 13
Toxicity ([5]; 3 mg/kg): 7/10
% T/C (mean survival time) ([5]; 3 mg/kg): 87%
Average Survival Time ([5]; 3 mg/kg): 7
average survival time of treated animals, in words ([5]; non toxic doses tested): increased considerably
active dose relative to adriamycin, in words ([5]; single treatment): active at lower doses than adriamycin
cytotoxic activity, in words [6]: the same cytotoxic activity as adriamycin

COc1cccc2c1C(=O)c1c(O)c3c(c(O)c1C2=O)C[C@@](O)(C(=O)CO)C[C@@H]3O[C@H]1C[C@H](N)[C@H](O)[C@H](C)O1 [Adriamycin, reference compound]
IC50 [1, 7]: 0.2 µg/mL (≈ 0.368 µM)
IC50 [1, 8]: 0.039 µg/mL (≈ 0.0718 µM)
activity at 0.006 µg/mL [2, 9]: 26%
activity at 0.0125 µg/mL [2, 9]: 0%
activity at 0.025 µg/mL [2, 9]: 0%
% T/C, average survival time ([3]; Experiment 1, 1 mg/kg day): 146%
number of longterm survivors, i.e., after 60 days ([3]; Experiment 1, 1 mg/kg day): 1/9
% T/C, average survival time ([3]; Experiment 1, 2 mg/kg day): 400%
number of longterm survivors, i.e., after 60 days ([3]; Experiment 1, 2 mg/kg day): 5/10
% T/C, average survival time ([3]; Experiment 1, 5 mg/kg day): 311%
number of longterm survivors, i.e., after 60 days ([3]; Experiment 1, 5 mg/kg day): 4/10
% T/C, average survival time ([3]; Experiment 2, 0.2 mg/kg day): 107%
number of longterm survivors, i.e., after 60 days ([3]; Experiment 2, 0.2 mg/kg day): 0/10
% T/C, average survival time ([3]; Experiment 2, 1 mg/kg day): 143%
number of longterm survivors, i.e., after 60 days ([3]; Experiment 2, 1 mg/kg day): 1/10
% T/C, average survival time ([3]; Experiment 2, 5 mg/kg day): 225%
number of longterm survivors, i.e., after 60 days ([3]; Experiment 2, 5 mg/kg day): 1/10
% T/C, average survival time ([3]; Experiment 2, 10 mg/kg day): 193%
number of longterm survivors, i.e., after 60 days ([3]; Experiment 2, 10 mg/kg day): 0/10
% T/C, average survival time ([3]; Experiment 3, 0.1 mg/kg day): 100%
number of longterm survivors, i.e., after 60 days ([3]; Experiment 3, 0.1 mg/kg day): 0/10
% T/C, average survival time ([3]; Experiment 3, 1 mg/kg day): 169%
number of longterm survivors, i.e., after 60 days ([3]; Experiment 3, 1 mg/kg day): 1/9
Toxicity ([4]; 2.5 mg/kg i.v.): 0/10
% T/C (mean tumor weight) ([4]; 2.5 mg/kg i.v., tenth day): 48%
Tumor Weight ([4]; 2.5 mg/kg i.v., tenth day): 1.465
Toxicity ([4]; 3.5 mg/kg i.v.): 7/10
% T/C (mean tumor weight) ([4]; 3.5 mg/kg i.v., tenth day): 12%
Tumor Weight ([4]; 3.5 mg/kg i.v., tenth day): 0.364
therapeutic index (T.I.) [4]: 1.8
Toxicity ([5]; 2.5 mg/kg): 0/10
% T/C (mean survival time) ([5]; 2.5 mg/kg): 156%
Average Survival Time ([5]; 2.5 mg/kg): 12.5
Toxicity ([5]; 5 mg/kg): 0/10
% T/C (mean survival time) ([5]; 5 mg/kg): 175%
Average Survival Time ([5]; 5 mg/kg): 14
Toxicity ([5]; 10 mg/kg): 4/10
% T/C (mean survival time) ([5]; 10 mg/kg): 200%
Average Survival Time ([5]; 10 mg/kg): 16
